Data on 39 molecules can be found in patent US20200121677A1, “SUBSTITUTED 6,7-DIHYDROPYRAZOLO[1,5-a]PYRAZINES AS NEGATIVE ALLOSTERIC MODULATORS OF MGLUR2 RECEPTORS” (Janssen Pharmaceutica NV, priority 2014, published 2020).

As usually defined, the melting point is the temperature of the solid-liquid transition. Usually IC50 stands for the concentration at which inhibition is half-maximal. The Emax is the size of the effect at its maximum, as opposed to the concentration needed.

The target of one data set is human mGlu2 receptor (Homo sapiens, UniProt Q14416). In words: [35S]GTPγS binding assay, mGluR2 negative allosteric modulation (membranes from CHO cells transfected with human mGlu2 receptor, glutamate ~EC80 60 μM).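 As to all read-outs here: membranes preincubated 30 min at 30 °C with compound plus glutamate, then [35S]GTPγS (0.1 nM) incorporation measured over another 30 min at 30 °C.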 The following applies: for IC50: GTPγS - hmGluR2 anGT pIC50, membranes with human mGlu2 receptor, glutamate ~EC80 (60 μM), pIC50 = -log IC50 (M); for Emax: read-out: GTPγS - hmGluR2 anGT Emax, relative maximal effect: maximal % inhibition relative to the control glutamate response. For orientation: Binding of GTPγS marks nucleotide exchange on a G protein.
human mGlu2 receptor, sequence (Q14416 19-872): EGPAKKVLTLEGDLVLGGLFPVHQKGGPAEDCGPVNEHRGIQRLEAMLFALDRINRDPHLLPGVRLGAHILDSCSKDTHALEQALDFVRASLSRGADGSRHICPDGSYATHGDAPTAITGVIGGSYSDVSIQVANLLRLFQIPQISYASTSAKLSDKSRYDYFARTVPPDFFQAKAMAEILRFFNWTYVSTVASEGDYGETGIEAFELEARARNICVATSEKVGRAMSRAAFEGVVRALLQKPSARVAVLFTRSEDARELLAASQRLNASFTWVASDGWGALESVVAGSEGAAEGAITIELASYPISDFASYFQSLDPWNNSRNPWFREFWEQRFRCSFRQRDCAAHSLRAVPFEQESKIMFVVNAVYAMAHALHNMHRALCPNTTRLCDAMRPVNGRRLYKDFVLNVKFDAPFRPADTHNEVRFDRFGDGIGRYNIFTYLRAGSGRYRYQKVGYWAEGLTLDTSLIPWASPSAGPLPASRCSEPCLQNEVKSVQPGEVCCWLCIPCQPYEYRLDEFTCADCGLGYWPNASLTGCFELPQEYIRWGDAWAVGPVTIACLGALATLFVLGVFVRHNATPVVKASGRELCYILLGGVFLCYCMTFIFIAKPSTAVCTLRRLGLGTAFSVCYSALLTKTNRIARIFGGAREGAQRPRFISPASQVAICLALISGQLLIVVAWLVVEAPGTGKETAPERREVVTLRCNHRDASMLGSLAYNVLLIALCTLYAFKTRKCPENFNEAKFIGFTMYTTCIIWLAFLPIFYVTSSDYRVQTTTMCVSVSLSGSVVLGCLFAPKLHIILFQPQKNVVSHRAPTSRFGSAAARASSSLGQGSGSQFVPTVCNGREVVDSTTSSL

For the molecule `COc1nc(N2C[C@H](C)n3ncc(C(=O)Nc4ccccc4)c3C2=O)ccc1Cl` [compound 83, (7S)-5-(5-Chloro-6-methoxy-2-pyridyl)-7-methyl-4-oxo-N-phenyl-6,7-dihydropyrazolo[1,5-a]pyrazine-3-carboxamide], the melting point is 203.08 °C. Also, at human mGlu2 receptor, the IC50 is 1.55e-08 M and the Emax stood at 111%.
On the same counts, the results for `C[C@H]1CN(c2ccc(C(F)(F)F)cc2)C(=O)c2c(C(=O)Nc3ccnc(CO)c3)cnn21` [compound 150] are 169.28 °C, 8.13e-09 M and 107%.
On to `C[C@H]1CN(c2ccc(C(F)(F)F)cc2)C(=O)c2c(C(=O)Nc3cncc(F)n3)cnn21` [compound 145], for which the melting point is 209.5 °C. Also, at human mGlu2 receptor, the half-maximal inhibitory concentration (IC50) is 1.23e-09 M and the Emax was found to be 126%.
`Cc1cc(CNC(=O)c2cnn3c2C(=O)N(c2ccc(C(F)(F)F)cc2)C[C@@H]3C)ccn1` [compound 63] returned a melting point of 148.8 °C. On human mGlu2 receptor, the IC50 was 1.17e-07 M and the Emax was determined as 99%.
On the same counts, the results for `C[C@H]1CN(c2ccc(C(F)(F)F)cc2)C(=O)c2c(C(=O)Nc3ccc(S(C)(=O)=O)cc3)cnn21` [compound 6] are 198.2 °C, 3.09e-09 M and 107%.
Taken in the same sequence, the figures for `Cc1cc(N2C[C@H](C)n3ncc(C(=O)Nc4cncc(F)c4C)c3C2=O)ccc1Cl` [compound 79] were 182 °C, 1.66e-09 M and 112%.
Taken in the same sequence, the figures for `C[C@H]1CN(c2ccc(C(F)(F)F)cc2)C(=O)c2c(C(=O)NC3COC3)cnn21` [compound 72] were 108.6 °C, 2.75e-07 M and 111%.
`C[C@H]1CN(c2ccc(C(F)(F)F)cc2)C(=O)c2c(C(=O)Nc3ncc[nH]3)cnn21` [compound 142] had a melting point of 257.9 °C. Besides, at human mGlu2 receptor, the half-inhibitory concentration (IC50) was 2.14e-07 M and the maximum response (Emax) worked out at 110%.
Taken in the same sequence, the figures for `C[C@H]1CN(c2ccc(C(F)(F)F)c(Cl)c2)C(=O)c2c(C(=O)Nc3cncc(F)c3)cnn21` [compound 50] were 168.1 °C, 1.74e-09 M and 108%.
Taken in the same sequence, the figures for `COCc1cc(N2C[C@H](C)n3ncc(C(=O)Nc4ccccn4)c3C2=O)ccc1C(F)(F)F` [compound 31] were 160.4 °C, 2.29e-08 M and 109%.
On the same counts, the results for `Cc1cc(NC(=O)c2cnn3c2C(=O)N(c2ccc(C(F)(F)F)c(C#N)c2)C[C@@H]3C)ccn1` [compound 91] are 224.9 °C, 1.86e-08 M and 103%.
As for `COc1cccnc1NC(=O)c1cnn2c1C(=O)N(c1ccc(C(F)(F)F)cc1)C[C@@H]2C` [compound 11], the melting point was determined as 164.7 °C. Moreover, at human mGlu2 receptor, the IC50 was 2.4e-07 M and the Emax stood at 109%.
Taken in the same sequence, the figures for `Cc1c(F)cncc1NC(=O)c1cnn2c1C(=O)N(c1ccc(Cl)c(Cl)c1)C[C@@H]2C` [compound 130] were 211.11 °C, 8.51e-10 M and 110%.
Molecule `COc1cnccc1NC(=O)c1cnn2c1C(=O)N(c1ccc(C(F)(F)F)cc1)C[C@@H]2C` [compound 16] returned a melting point of 200.8 °C. Moreover, at human mGlu2 receptor, the half-inhibitory concentration (IC50) is 1.38e-08 M and the Emax is 115%.
On the same counts, the results for `C[C@H]1CN(c2ccc(C(F)(F)F)cc2)C(=O)c2c(C(=O)NC3CCC3)cnn21` [compound 71] are 208.2 °C, 7.08e-08 M and 111%.
On the same counts, the results for `C[C@H]1CN(c2ccc(C(F)(F)F)c(CF)c2)C(=O)c2c(C(=O)Nc3ccncc3)cnn21` [compound 52] are 197.4 °C, 2.57e-09 M and 118%.
On the same counts, the results for `Cc1c(F)cncc1NC(=O)c1cnn2c1C(=O)N(c1ccc(Cl)cc1)C[C@@H]2C` [compound 129] are 189.99 °C, 6.17e-09 M and 110%.
Take `C[C@H]1CN(c2ccc(C(F)(F)F)cc2)C(=O)c2c(C(=O)NC3CCCCC3)cnn21` [compound 65]: the melting point stood at 209.8 °C. Also, on human mGlu2 receptor, the IC50 is 1.78e-07 M and the maximal effect (Emax) amounted to 107%.
On the same counts, the results for `CC(=O)NC(=O)c1cnn2c1C(=O)N(c1ccc(C(F)(F)F)cc1)C[C@@H]2C` [compound 138] are 212.65 °C, 1.66e-07 M and 114%.
Taken in the same sequence, the figures for `C[C@H]1CN(c2ccc(C(F)(F)F)cc2)C(=O)c2c(C(=O)NCC3CCOC3)cnn21` (stereo partly drawn) [compound 64] were 68.3 °C, 1.7e-07 M and 107%.
Taken in the same sequence, the figures for `C[C@H]1CN(c2ccc(C(F)(F)F)cc2)C(=O)c2c(C(=O)NCC3CC3)cnn21` [compound 60] were 161.4 °C, 4.37e-08 M and 103%.
`Cc1cc(NC(=O)c2cnn3c2C(=O)N(c2ccccc2)C[C@@H]3C)ccn1` [compound 97] displayed a melting point of 94.5 °C. For the same molecule, on human mGlu2 receptor, the IC50 is 1.48e-07 M and the maximum response (Emax) came to 114%.
On the same counts, the results for `C[C@H]1CN(c2ccc(C(F)(F)F)cc2)C(=O)c2c(C(=O)NCC3CCOCC3)cnn21` [compound 70] are 128.8 °C, 8.13e-07 M and 106%.
Taken in the same sequence, the figures for `CC(NC(=O)c1cnn2c1C(=O)N(c1ccc(C(F)(F)F)cc1)C[C@@H]2C)C1CC1` (single isomer, unassigned) [compound 61] were 186.7 °C, 7.08e-08 M and 104%.
On the same counts, the results for `C[C@H]1CN(c2ccc(C(F)(F)F)cc2)C(=O)c2c(C(N)=O)cnn21` [compound 73, (7S)-7-methyl-4-oxo-5-[4-(trifluoromethyl)phenyl]-6,7-dihydropyrazolo [1,5-a]pyrazine-3-carboxamide] are 275 °C, 1.35e-06 M and 95%.
On to `C[C@H]1CN(c2ccc(C(F)(F)F)cc2)C(=O)c2c(C(=O)NCC3CCCO3)cnn21` (stereo partly drawn) [compound 62], for which the melting point came out at 231.4 °C. Also, at human mGlu2 receptor, the concentration for half-maximal inhibition (IC50) was 7.76e-08 M and the maximal response (Emax) was 104%.
On the same counts, the results for `COc1cc(N2C[C@H](C)n3ncc(C(=O)Nc4cnccn4)c3C2=O)ccc1C(F)(F)F` [compound 115] are 193.3 °C, 6.92e-09 M and 108%.
For the molecule `COc1cncc(NC(=O)c2cnn3c2C(=O)N(c2ccc(C(F)(F)F)c(OC)c2)C[C@@H]3C)c1` [compound 34], the melting point came out at 191.5 °C. Also, on human mGlu2 receptor, the concentration for half-maximal inhibition (IC50) was 1.05e-08 M and the Emax turned out to be 107%.
Taken in the same sequence, the figures for `C[C@H]1CN(c2ccc(C(F)(F)F)cc2)C(=O)c2c(C(=O)Nc3cccc(S(C)(=O)=O)c3)cnn21` [compound 2] were 217.7 °C, 1.7e-09 M and 103%.
Taken in the same sequence, the figures for `COc1cccc(NC(=O)c2cnn3c2C(=O)N(c2ccc(C(F)(F)F)c(OC)n2)C[C@@H]3C)c1` [compound 119, (7S)—N-(3-Methoxyphenyl)-5-[6-methoxy-5-(trifluoromethyl)-2-pyridyl]-7-methyl-4-oxo-6,7-dihydropyrazolo[1,5-a]pyrazine-3-carboxamide] were 194.51 °C, 7.76e-09 M and 111%.
Taken in the same sequence, the figures for `Cc1ncc(NC(=O)c2cnn3c2C(=O)N(c2ccc(C(F)(F)F)cc2)C[C@@H]3C)cn1` [compound 99] were 223.3 °C, 4.57e-08 M and 100%.
Molecule `C[C@H]1CN(c2ccc(C(F)(F)F)cc2)C(=O)c2c(C(=O)Nc3ncco3)cnn21` [compound 139] had a melting point of 204.9 °C. Also, at human mGlu2 receptor, the IC50 is 2.57e-08 M and the maximal effect (Emax) turned out to be 109%.
On the same counts, the results for `Cc1cc(NC(=O)c2cnn3c2C(=O)N(c2ccc(C(F)(F)F)c(CF)c2)C[C@@H]3C)ccn1` [compound 54] are 141.3 °C, 5.25e-09 M and 118%.
Taken in the same sequence, the figures for `Cc1cc(NC(=O)c2cnn3c2C(=O)N(c2ccc(C(F)(F)F)c(Cl)c2)C[C@@H]3C)on1` [compound 128] were 213.44 °C, 2.88e-09 M and 106%.
As to `C[C@H]1CN(c2ccc(C(F)(F)F)cc2)C(=O)c2c(C(=O)NCc3ccc(N)nc3)cnn21` [compound 136, (7S)—N-[(6-Amino-3-pyridyl)methyl]-7-methyl-4-oxo-5-[4-(trifluoromethyl)phenyl]-6,7-dihydropyrazolo[1,5-a]pyrazine-3-carboxamide], the melting point is 104.2 °C. In addition, at human mGlu2 receptor, the concentration for half-maximal inhibition (IC50) is 1.55e-06 M and the Emax amounted to 104%.
Taken in the same sequence, the figures for `O=C(Nc1cccnc1)c1cnn2c1C(=O)N(c1ccc(C(F)(F)F)cc1)CC2` [compound 153] were 229.9 °C, 1.23e-07 M and 111%.
Taken in the same sequence, the figures for `C[C@H]1CN(c2ccc(C(F)(F)F)cc2)C(=O)c2c(C(=O)NCC3CCCC3)cnn21` [compound 59] were 159.8 °C, 3.55e-08 M and 103%.
On the same counts, the results for `C[C@H]1CN(c2ccc(C(F)(F)F)c(F)c2)C(=O)c2c(C(=O)Nc3cncc(F)c3)cnn21` [compound 24] are 204 °C, 3.24e-09 M and 107%.
Turning to `Cc1cc(N2C[C@H](C)n3ncc(C(=O)Nc4cncc(F)c4C)c3C2=O)ccc1C(F)(F)F` [compound 125], the melting point came to 156.83 °C. At human mGlu2 receptor, the IC50 is 2.34e-09 M and the maximal effect (Emax) is 110%.
